The target in data set [1] is Tyrosine-protein kinase SYK (Homo sapiens, UniProt P43405).
The test system of the next data set is PBMC. The data set is described as follows: Suppression of IL2 production in human PBMC after 24 hrs by ELISA. A general note: An ELISA detects its analyte on a solid surface through an enzyme-linked reagent.
Data set [2] deals with Protein kinase C beta type (Homo sapiens, UniProt P05771).
The target of data set [3] is Tyrosine-protein kinase Lck (Homo sapiens, UniProt P06239).
Tyrosine-protein kinase Lck, sequence (P06239 whole entry): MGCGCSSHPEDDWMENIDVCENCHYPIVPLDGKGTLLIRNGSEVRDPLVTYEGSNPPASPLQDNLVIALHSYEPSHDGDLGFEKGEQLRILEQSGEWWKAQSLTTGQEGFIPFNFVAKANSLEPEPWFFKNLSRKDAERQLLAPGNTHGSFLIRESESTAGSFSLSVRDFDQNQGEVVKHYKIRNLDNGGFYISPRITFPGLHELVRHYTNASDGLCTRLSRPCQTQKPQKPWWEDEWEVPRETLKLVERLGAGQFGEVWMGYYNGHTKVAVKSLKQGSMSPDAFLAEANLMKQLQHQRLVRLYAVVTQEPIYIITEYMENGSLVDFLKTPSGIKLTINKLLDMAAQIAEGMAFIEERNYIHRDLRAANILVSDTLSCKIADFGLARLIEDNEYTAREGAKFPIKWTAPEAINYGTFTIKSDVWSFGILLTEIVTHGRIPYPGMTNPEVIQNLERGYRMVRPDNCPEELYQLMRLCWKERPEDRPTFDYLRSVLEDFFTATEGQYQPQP
Data set [4] in a line: Aqueous solubility of the compound. It is filed as physicochemical. The conditions noted are these: water.
The target of data set [5] is T1, Tyrosine-protein kinase ZAP-70 (Homo sapiens, UniProt P43403).
T1 sequence (P43403 whole entry): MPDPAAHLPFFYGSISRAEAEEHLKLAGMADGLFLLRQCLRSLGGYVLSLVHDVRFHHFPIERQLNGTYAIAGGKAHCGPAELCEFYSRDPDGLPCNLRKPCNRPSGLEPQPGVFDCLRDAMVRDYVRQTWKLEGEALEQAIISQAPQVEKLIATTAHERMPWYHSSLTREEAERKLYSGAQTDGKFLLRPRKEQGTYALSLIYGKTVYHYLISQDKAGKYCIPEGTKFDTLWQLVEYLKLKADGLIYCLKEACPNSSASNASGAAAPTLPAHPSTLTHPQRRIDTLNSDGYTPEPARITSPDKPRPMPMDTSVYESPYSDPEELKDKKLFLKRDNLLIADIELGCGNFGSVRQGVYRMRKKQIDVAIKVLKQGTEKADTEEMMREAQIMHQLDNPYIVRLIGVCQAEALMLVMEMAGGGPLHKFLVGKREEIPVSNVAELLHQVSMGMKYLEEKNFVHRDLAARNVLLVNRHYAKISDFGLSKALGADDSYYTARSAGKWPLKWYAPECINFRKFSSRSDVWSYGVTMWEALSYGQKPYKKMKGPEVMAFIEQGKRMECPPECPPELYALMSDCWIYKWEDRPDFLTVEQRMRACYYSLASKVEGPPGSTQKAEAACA
Briefly: Inhibition of human ZAP70.

For a further data set, the system named is Blood. The data set is described as follows: Suppression of IL2 production in human whole blood after 24 hrs by ELISA.

In brackets after ≈: the same amount, converted by molar mass.

Protein kinase C beta type, sequence (P05771 whole entry): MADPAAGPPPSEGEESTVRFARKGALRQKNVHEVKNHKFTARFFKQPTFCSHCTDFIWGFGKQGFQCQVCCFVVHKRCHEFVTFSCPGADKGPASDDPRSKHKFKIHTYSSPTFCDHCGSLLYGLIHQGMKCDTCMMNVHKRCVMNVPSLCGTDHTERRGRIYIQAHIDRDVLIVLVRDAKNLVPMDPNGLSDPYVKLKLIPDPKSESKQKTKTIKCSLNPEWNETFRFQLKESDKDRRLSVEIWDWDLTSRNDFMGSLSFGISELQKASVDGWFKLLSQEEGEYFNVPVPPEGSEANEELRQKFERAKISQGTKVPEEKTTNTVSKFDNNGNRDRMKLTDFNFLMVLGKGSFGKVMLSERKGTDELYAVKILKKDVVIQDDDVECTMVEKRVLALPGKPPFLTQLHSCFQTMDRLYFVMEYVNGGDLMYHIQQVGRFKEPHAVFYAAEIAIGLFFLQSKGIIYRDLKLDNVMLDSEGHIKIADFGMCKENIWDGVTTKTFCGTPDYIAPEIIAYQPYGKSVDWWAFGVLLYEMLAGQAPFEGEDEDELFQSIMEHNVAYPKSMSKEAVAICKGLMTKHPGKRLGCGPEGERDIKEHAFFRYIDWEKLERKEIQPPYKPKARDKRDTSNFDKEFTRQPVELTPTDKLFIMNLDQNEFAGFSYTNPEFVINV

A word on the IC50: it is the concentration that inhibits the measured activity by half. Lower therefore signals higher potency. In data set [1], `COc1cc(Nc2nc(NCCN)n3cnnc3c2C(N)=O)cc(OC)c1` came in with a 50% inhibitory concentration (IC50) of 9 nM.

For `COc1cc(Nc2nc(NCCO)n3cnnc3c2C(N)=O)cc(OC)c1`, in data set [1], inhibition was half-maximal at 6100 nM (IC50).

In turn, `COc1cc(Nc2nc(NCC(C)(C)N)n3cnnc3c2C(N)=O)cc(OC)c1` registered an IC50 in data set [1] of 150 nM.

In data set [1], `COc1cc(Nc2nc(NCCCN)n3cnnc3c2C(N)=O)cc(OC)c1` came in with an IC50 of 7700 nM.

The molecule `COc1cc(Nc2nc(NCC(=O)OC(C)(C)C)n3cnnc3c2C(N)=O)cc(OC)c1` returned an IC50 in data set [1] of 79100 nM.

`COc1cc(Nc2nc(N[C@H]3CCCC[C@H]3N)n3nc(-c4ccccc4Cl)nc3c2C(N)=O)cc(OC)c1` (relative stereo): the IC50 was found to be 1760 nM in the data set with PBMC and 50 nM in data set [1].

The term solubility denotes the concentration that dissolves in the medium under given conditions. Turning to `COc1cc(Nc2nc(N[C@H]3CCCC[C@H]3N)n3ncnc3c2C(N)=O)cc(OC)c1` (relative stereo), the IC50 in data set [2] was found to be 2660 nM; in data set [3], 590 nM; in data set [1], 4 nM; in data set [5], 330 nM. This molecule had a solubility in data set [4] of 42 µg/mL (≈ 98.5 µM).

Regarding `COc1cc(Nc2nc(N[C@H]3CCCC[C@H]3N)n3cnnc3c2C(N)=O)cc(OC)c1` (relative stereo), the IC50 turned out to be 680 nM in data set [2], 180 nM in data set [3], 9 nM in data set [1] and 120 nM in data set [5]. The solubility in data set [4] is 351 µg/mL (≈ 823 µM).

In the case of `COc1cc(Nc2nc(N[C@H]3CCCC[C@H]3N)n3nc(-c4cccc(OC)c4)nc3c2C(N)=O)cc(OC)c1` (relative stereo), in data set [1], the IC50 worked out at 120 nM.

In the case of `COc1cc(Nc2nc(N[C@H]3CCCC[C@H]3N)n3nc(-c4ccccc4)nc3c2C(N)=O)cc(OC)c1` (relative stereo), the half-maximal inhibitory concentration (IC50) with Blood came to 2000 nM; in the data set on PBMC, 210 nM; in data set [1], 83 nM. This molecule registered a solubility in data set [4] of 1.2 µg/mL (≈ 2.39 µM).

In turn, `COc1cc(Nc2nc(N[C@H]3CCCC[C@H]3N)n3c(-c4ccccc4)nnc3c2C(N)=O)cc(OC)c1` (relative stereo) displayed an IC50 in data set [1] of 15200 nM.
